Measured values: patent publication US7144710B2, “Method for detecting inflammation and inflammatory conditions” (Trustees of Dartmouth College, priority 2000, dated 2006)

How the values were obtained:
monocyte surface CD163 [1] = settings: Droste et al. 1999; blocked by protease inhibitors; cited from earlier work
monocyte surface CD163 [2] = experiment: Shedding of monocyte surface CD163 in vitro; assay type: cell-based, human; settings: for shedding of surface CD163 from cells pre-treated with glucocorticoids plus LPS: subsequent treatment with the agent
Method: Therefore, like PMA, LPS is capable of inducing CD163 shedding. LPS-induced shedding occurred even with monocytes that had been cultured for 48 hours in DEX and thus had 5- to 10-fold higher levels of surface CD163 than freshly isolated monocytes. […] This LPS-conferred resistance to subsequent LPS-induced shedding of CD163 is similar to reported endotoxin pre-conditioning for resistance to subsequent inflammatory insults.

CD163 expression = experiment: Monocytes cultured with LPS and/or DEX, immunofluorescence detection of surface CD163; assay type: cell-based, human; settings: monocytes cultured with LPS alone
Method: In addition to testing the effects of cytokines in combination with glucocorticoids on levels of CD163, studies were performed to examine the effects of glucocorticoids in combination with lipopolysaccharide (LPS). […] However, when monocytes were cultured for 48 hours with DEX combined with LPS, their was a synergistic increase in CD163 expression, where the effect of DEX alone was increased by more than 2-fold when LPS treatment was added.

[3] = test system: CRP, TNFA, IL-6, IL-10, cortisol in plasma; experiment: Plasma acute phase proteins, glucocorticoids and cytokines of healthy volunteers after LPS bolus infusion; assay type: in vivo, human; settings: post LPS administration
Method: In order to more closely mimic the in vivo inflammatory response to infection in a more controlled setting than the cardiac patients described above, healthy volunteers were administered a 4 ng/kg bolus infusion of LPS and monitored the levels of soluble CD163 in plasma. […] Plasma samples were taken at baseline (before administration of LPS), and then at various time points after LPS infusion up to 72 hours after infusion initiation. Levels of CD163 in plasma were measured using the assay of the present invention. […] In the one volunteer where levels had declined at […], levels remained elevated up to 4 hours before returning to baseline levels by 8 hours. Changes in levels of known acute phase proteins, glucocorticoids, and pro- and anti-inflammatory cytokines were also monitored in order to determine if their levels correlated with the appearance of soluble CD163 in plasma. […] Plasma levels of TNFA, IL-6 and IL-10, all known to be produced following LPS infusion, peaked at 1, 2, and 4 hours post LPS administration, respectively. […] Therefore, CD163 acts as an early signaling event in the inflammatory response cascade.

soluble CD163 in plasma = experiment: Soluble CD163 in plasma of healthy volunteers after LPS bolus infusion (ELISA); assay type: in vivo, human; settings: 4 ng/kg bolus infusion of LPS
Method: In order to provide for use of CD163 as a biomarker of inflammation, a method for detection of CD163 in biological samples such as plasma was developed. The assay of detection is an ELISA assay using a CD163-specific antibody such as MAC2-158 or MAC2-48 as the CD163 capture antibody and the commercially available biotinylated antibody RM3/1 as the CD163 detection antibody. Briefly, plates were coated with purified MAC2-158 or MAC2-48 antibody and incubated overnight at 4 C. After washing, non-specific binding was blocked by adding blocking buffer to each plate well and incubating for 30 minutes at room temperature. […]
In order to more closely mimic the in vivo inflammatory response to infection in a more controlled setting than the cardiac patients described above, healthy volunteers were administered a 4 ng/kg bolus infusion of LPS and monitored the levels of soluble CD163 in plasma. […] Levels of CD163 in plasma were measured using the assay of the present invention. […] Changes in levels of known acute phase proteins, glucocorticoids, and pro- and anti-inflammatory cytokines were also monitored in order to determine if their levels correlated with the appearance of soluble CD163 in plasma. […]
ELISA plates were coated, 100 μl per well, with 5 μg/ml purified MAC2-158 (coating buffer of 0.1 M NaHCO30.5 M NaCl, adjusted to pH 8.4 with HCl). […] The plates were read on a spectrophotometer at […].

[4] = test system: monocyte CD163 expression; experiment: CD163 expression on monocytes of cultured PBMCs, staining and flow cytometric analysis; assay type: cell-based, human; settings: for CD163 expression of cytokine given in combination with DEX over DEX treatment alone: PBMCs 24 hours; for increase of monocyte CD163 expression: PBMCs treated 24 hours, agent alone, 200 nM DEX, vs control media, p<0.01
Method: To assess whether different cytokines could influence CD163 expression, freshly isolated PBMCs were cultured for 24 hours in the presence of various cytokines, 200 nM DEX (as a positive control for CD163 upregulation), or control media. The cells were then subjected to staining and flow cytometric analysis.
For cytokine treatment studies, isolated PBMCs were suspended in hepes buffered RPMI 1640/0.05% gentamicin/10% FBS at a concentration of 2.0×10^6 to 2.5×10^6 cells/ml and cultured in 96 well plates at 37° C. and 5% CO2 in the presence of various mediators (Table 1). Mononuclear cells were stained for flow cytometric analysis after 24 hours in culture unless otherwise indicated. This enhanced cell recovery because monocytes, which initially adhere to plastic vessels, transiently detach from culture wells at 24–48 hours.
All staining procedures were performed at 4 C. Briefly, cultured PBMCs were incubated with normal human IgG (6 mg/ml) to block Fc receptor-specific binding of mAbs and 30 μg/ml of the isotype control mAb P3 or a saturating amount of mAb MAC2-48 (20 μg/ml) for one hour. Cells were then washed and stained for one hour with 17.5 μg/ml FITC labeled goat F(ab=)2 anti-mouse Ig. The cells were again washed and fixed with 1% methanol free formalin.
Cell fluorescence of monocytes gated using forward and side scatter was analyzed using a Becton Dickenson FACScan (Franklin Lakes, N.J.). Mean fluorescence intensity (MFI) was calculated by subtracting the MFI of the P3 stained mononuclear cells from the MFI of the corresponding Mac 2-48 stained cells.

CD163 = experiment: Western blots of monocyte lysates; assay type: cell-based, human

Molecule: CCCCCCCCCCCCCC(=O)O[C@@H]1[C@@H](C)[C@@]2(O)[C@@H](C=C(CO)C[C@]3(O)C(=O)C(C)=C[C@@H]23)[C@@H]2C(C)(C)[C@]12OC(C)=O [PMA]
- shedding of surface CD163 from monocytes in culture (monocyte surface CD163 [1]): rapid shedding
- shedding of surface CD163 from cells pre-treated with glucocorticoids plus LPS (monocyte surface CD163 [2]): remained sensitive

Molecule: lipopolysaccharide [LPS]
- CD163 detected on monocyte surface (CD163 expression): low levels of CD163
- time at which plasma cortisol began to increase [3]: 4 h
- time by which plasma CRP increased [3]: ≤ 8 h
- time of peak of plasma CRP [3]: 24 h
- time of peak of plasma IL-6 [3]: 2 h
- time of peak of plasma IL-10 [3]: 4 h
- time of peak of plasma TNFA [3]: 1 h
- time of peak of plasma cortisol [3]: 6 h
- time to shedding of monocyte surface CD163 (monocyte surface CD163 [2]; in vitro): ≤ 2 h
- shedding of surface CD163 from cells pre-treated with glucocorticoids plus LPS (monocyte surface CD163 [2]): largely resistant to shedding
- increase of soluble CD163 levels in plasma compared to baseline (soluble CD163 in plasma): ≤ 7 fold

Molecule: GM-CSF
- CD163 expression of cytokine given in combination with DEX over DEX treatment alone [4]: does not enhance CD163 expression

Molecule: C[C@@H]1C[C@H]2[C@@H]3CCC4=CC(=O)C=C[C@]4(C)[C@@]3(F)[C@@H](O)C[C@]2(C)[C@@]1(O)C(=O)CO [DEX]
- increase of monocyte CD163 expression [4]: ~7 fold

B1: IL-4: cytokine interleukin-4 (protein, UniProt P05112 25-153, looked up)
Interleukin-4: HKCDITLQEIIKTLNSLTEQKTLCTELTVTDIFAASKNTTEKETFCRAATVLRQFYSHHEKDTRCLGATAQQFHRHKQLIRFLKRLDRNLWGLAGLNSCPVKEANQSTLENFLERLKTIMREKYSKCSS
- CD163 expression of cytokine given in combination with DEX over DEX treatment alone [4]: does not enhance CD163 expression

B2: IL-10: cytokine, originally known as cytokine synthesis inhibitory factor (protein, UniProt P22301 19-178, looked up)
Interleukin-10: SPGQGTQSENSCTHFPGNLPNMLRDLRDAFSRVKTFFQMKDQLDNLLLKESLLEDFKGYLGCQALSEMIQFYLEEVMPQAENQDPDIKAHVNSLGENLKTLRLRLRRCHRFLPCENKSKAVEQVKNAFNKLQEKGIYKAMSEFDIFINYIEAYMTMKIRN
- CD163 expression of cytokine given in combination with DEX over DEX treatment alone [4]: significantly increased CD163 expression
- increase of monocyte CD163 expression [4]: approximately 4 fold
- CD163 expression by western blot (CD163): increased expression of CD163
